Data reported in ChEMBL document CHEMBL5108033, “Salidroside attenuates sepsis-associated acute lung injury through PPP1R15A mediated endoplasmic reticulum stress inhibition” (2022).
The source made the active and inactive calls. No cut-off for these calls is given here.

Tests used:
Rattus norvegicus [1] = assay: Protection against cecal ligation-induced Sprague-Dawley rat sepsis associated acute lung injury model assessed as reduction in lung injury at 50 mg/kg, ip and measured after 24 hrs by H and E staining based analysis; assay type: functional, organism-based
Rattus norvegicus [2] = assay: Protection against cecal ligation-induced Sprague-Dawley rat sepsis associated acute lung injury model assessed as reduction in serum IL-1beta at 50 mg/kg, ip and measured after 24 hrs by ELISA; assay type: functional, organism-based
Rattus norvegicus [3] = assay: Protection against cecal ligation-induced Sprague-Dawley rat sepsis associated acute lung injury model assessed as reduction in serum TNF-alpha at 50 mg/kg, ip and measured after 24 hrs by ELISA; assay type: functional, organism-based
Rattus norvegicus [4] = assay: Protection against cecal ligation-induced Sprague-Dawley rat sepsis associated acute lung injury model assessed as reduction in serum IL-6 at 50 mg/kg, ip and measured after 24 hrs by ELISA; assay type: functional, organism-based
Rattus norvegicus [5] = assay: Protection against cecal ligation-induced Sprague-Dawley rat sepsis associated acute lung injury model assessed as reduction in total cell number in BALF at 50 mg/kg, ip and measured after 24 hrs by cell counter analysis; assay type: functional, organism-based
Rattus norvegicus [6] = assay: Protection against cecal ligation-induced Sprague-Dawley rat sepsis associated acute lung injury model assessed as reduction in neutrophil number in BALF at 50 mg/kg, ip and measured after 24 hrs by cell counter analysis; assay type: functional, organism-based
Rattus norvegicus [7] = assay: Protection against cecal ligation-induced Sprague-Dawley rat sepsis associated acute lung injury model assessed as reduction in neutrophil elastase activity in BALF at 50 mg/kg, ip and measured after 24 hrs by Elastase assay; assay type: functional, organism-based
Rattus norvegicus [8] = assay: Protection against cecal ligation-induced Sprague-Dawley rat sepsis associated acute lung injury model assessed as reduction in lung wet weight to dry weight ratio at 50 mg/kg, ip and measured after 24 hrs; assay type: functional, organism-based
Rattus norvegicus [9] = assay: Protection against cecal ligation-induced Sprague-Dawley rat sepsis associated acute lung injury model assessed as reduction in lung water content at 50 mg/kg, ip and measured after 24 hrs; assay type: functional, organism-based
Rattus norvegicus [10] = assay: Protection against cecal ligation-induced Sprague-Dawley rat sepsis associated acute lung injury model assessed as reduction in albumin content in alveolar lavage fluid supernatant at 50 mg/kg, ip and measured after 24 hrs; assay type: functional, organism-based
Rattus norvegicus [11] = assay: Protection against cecal ligation-induced Sprague-Dawley rat sepsis associated acute lung injury model assessed as upregulation of cecal ligation inhibited PPP1R15A at 50 mg/kg, ip and measured after 24 hrs; assay type: functional, organism-based
Rattus norvegicus [12] = assay: Protection against cecal ligation-induced Sprague-Dawley rat sepsis associated acute lung injury model assessed as downregulation of cecal ligation induced phosphorylated eIF-2alpha level at 50 mg/kg, ip and measured after 24 hrs; assay type: functional, organism-based
Rattus norvegicus [13] = assay: Protection against cecal ligation-induced Sprague-Dawley rat sepsis associated acute lung injury model assessed as downregulation of cecal ligation induced GRP78 level at 50 mg/kg, ip and measured after 24 hrs; assay type: functional, organism-based
Rattus norvegicus [14] = assay: Protection against cecal ligation-induced Sprague-Dawley rat sepsis associated acute lung injury model assessed as downregulation of cecal ligation induced ATF4 level at 50 mg/kg, ip and measured after 24 hrs; assay type: functional, organism-based
Rattus norvegicus [15] = assay: Protection against cecal ligation-induced Sprague-Dawley rat sepsis associated acute lung injury model assessed as downregulation of cecal ligation induced CHOP level at 50 mg/kg, ip and measured after 24 hrs; assay type: functional, organism-based
Epithelial cell [16] = assay: Upregulation of PPP1R15A expression in LPS-stimulated human HBE cells assessed as inhibition of LPS down regulated PPP1R15A expression at 40 uM incubated for 1 hrs by qRT-PCR analysis; assay type: functional, cell-based
Epithelial cell [17] = assay: Cytotoxicity against LPS-stimulated human HBE cells assessed as increase in cell viability at 40 uM and measured for 24 to 72 hrs by CCK-8 assay; assay type: functional, cell-based; settings: time 24-72 hrs
Epithelial cell [18] = assay: Inhibition of apoptosis in LPS-stimulated human HBE cells assessed as necrotic cells at 40 uM incubated for 1 hr by AnnexinV-FITC/PI staining based flow cytometric analysis (Rvb=0.444%); assay type: functional; parameters: scale not given: the % may be the effect or the level left
Epithelial cell [19] = assay: Inhibition of apoptosis in LPS-stimulated human HBE cells assessed as early apoptotic cells at 40 uM incubated for 1 hr by AnnexinV-FITC/PI staining based flow cytometric analysis (Rvb=21.5%); assay type: functional; parameters: scale not given: the % may be the effect or the level left
Epithelial cell [20] = assay: Inhibition of apoptosis in LPS-stimulated human HBE cells assessed as late apoptotic cells at 40 uM incubated for 1 hr by AnnexinV-FITC/PI staining based flow cytometric analysis (Rvb=5.75%); assay type: functional; parameters: scale not given: the % may be the effect or the level left
Epithelial cell [21] = assay: Inhibition of apoptosis in LPS-stimulated human HBE cells assessed as viable cells at 40 uM incubated for 1 hr by AnnexinV-FITC/PI staining based flow cytometric analysis (Rvb=72.3%); assay type: functional; settings: read-out: Activity
Epithelial cell [22] = assay: Induction of apoptosis in LPS-stimulated human HBE cells with silenced PPP1R15A assessed as necrotic cells at 40 uM incubated for 1 hr by AnnexinV-FITC/PI staining based flow cytometric analysis (Rvb=0.518%); assay type: functional
Epithelial cell [23] = assay: Induction of apoptosis in LPS-stimulated human HBE cells with silenced PPP1R15A assessed as early apoptotic cells at 40 uM incubated for 1 hr by AnnexinV-FITC/PI staining based flow cytometric analysis (Rvb=11%); assay type: functional
Epithelial cell [24] = assay: Induction of apoptosis in LPS-stimulated human HBE cells with silenced PPP1R15A assessed as late apoptotic cells at 40 uM incubated for 1 hr by AnnexinV-FITC/PI staining based flow cytometric analysis (Rvb=2.30%); assay type: functional
Epithelial cell [25] = assay: Induction of apoptosis in LPS-stimulated human HBE cells with silenced PPP1R15A assessed as late apoptotic cells at 40 uM incubated for 1 hr by AnnexinV-FITC/PI staining based flow cytometric analysis (Rvb=85.7%); assay type: functional
Epithelial cell [26] = assay: Downregulation of phosphorylated eIF-2alpha expression in LPS-stimulated human HBE cells at 40 uM incubated for 1 hr by western blot analysis; assay type: functional, cell-based
Epithelial cell [27] = assay: Downregulation of GRP78 expression in LPS-stimulated human HBE cells at 40 uM incubated for 1 hr by western blot analysis; assay type: functional, cell-based
Epithelial cell [28] = assay: Downregulation of ATF4 expression in LPS-stimulated human HBE cells at 40 uM incubated for 1 hr by western blot analysis; assay type: functional, cell-based
Epithelial cell [29] = assay: Downregulation of CHOP expression in LPS-stimulated human HBE cells at 40 uM incubated for 1 hr by western blot analysis; assay type: functional, cell-based
Epithelial cell [30] = assay: Downregulation of phosphorylated eIF-2alpha expression in LPS-stimulated human HBE cells with silenced PPP1R15A at 40 uM incubated for 1 hr in presence of TUDCA by western blot analysis; assay type: functional, cell-based
Epithelial cell [31] = assay: Downregulation of GRP78 in LPS-stimulated human HBE cells with silenced PPP1R15A at 40 uM incubated for 1 hr in presence of TUDCA by western blot analysis; assay type: functional, cell-based
Epithelial cell [32] = assay: Downregulation of ATF4 in LPS-stimulated human HBE cells with silenced PPP1R15A at 40 uM incubated for 1 hr in presence of TUDCA by western blot analysis; assay type: functional, cell-based
Epithelial cell [33] = assay: Downregulation of CHOP in LPS-stimulated human HBE cells with silenced PPP1R15A at 40 uM incubated for 1 hr in presence of TUDCA by western blot analysis; assay type: functional, cell-based
Epithelial cell [34] = assay: Cytotoxicity against LPS-stimulated human HBE cells with silenced PPP1R15A assessed as increase in cell viability at 40 uM and measured for 24 to 72 hrs in presence of TUDCA by CCK-8 assay; assay type: functional, cell-based; settings: time 24-72 hrs
Epithelial cell [35] = assay: Inhibition of apoptosis in LPS-stimulated human HBE cells with silenced PPP1R15A assessed as necrotic cells at 40 uM incubated for 1 hr in presence of TUDCA by AnnexinV-FITC/PI staining based flow cytometric analysis (Rvb=2.48%); assay type: functional; parameters: scale not given: the % may be the effect or the level left
Epithelial cell [36] = assay: Inhibition of apoptosis in LPS-stimulated human HBE cells with silenced PPP1R15A assessed as early apoptotic cells at 40 uM incubated for 1 hr in presence of TUDCA by AnnexinV-FITC/PI staining based flow cytometric analysis (Rvb=9.22%); assay type: functional; parameters: scale not given: the % may be the effect or the level left
Epithelial cell [37] = assay: Inhibition of apoptosis in LPS-stimulated human HBE cells with silenced PPP1R15A assessed as late apoptotic cells at 40 uM incubated for 1 hr in presence of TUDCA by AnnexinV-FITC/PI staining based flow cytometric analysis (Rvb=5.08%); assay type: functional; parameters: scale not given: the % may be the effect or the level left
Epithelial cell [38] = assay: Inhibition of apoptosis in LPS-stimulated human HBE cells with silenced PPP1R15A assessed as necrotic cells at 40 uM incubated for 1 hr in presence of TUDCA by AnnexinV-FITC/PI staining based flow cytometric analysis (Rvb=83.2%); assay type: functional; parameters: scale not given: the % may be the effect or the level left

## C[C@@H]1C[C@H]2[C@@H]3CCC4=CC(=O)C=C[C@]4(C)[C@@]3(F)[C@@H](O)C[C@]2(C)[C@@]1(O)C(=O)CO
Rattus norvegicus [1]
  Activity: Active
Rattus norvegicus [2]
  Activity: Active
Rattus norvegicus [3]
  Activity: Active
Rattus norvegicus [4]
  Activity: Active
Rattus norvegicus [5]
  Activity: Active
Rattus norvegicus [6]
  Activity: Active
Rattus norvegicus [7]
  Activity: Active
Rattus norvegicus [8]
  Activity: Active
Rattus norvegicus [9]
  Activity: Active
Rattus norvegicus [10]
  Activity: Active
Rattus norvegicus [11]
  Activity: Active
Rattus norvegicus [12]
  Activity: Active
Rattus norvegicus [13]
  Activity: Active
Rattus norvegicus [14]
  Activity: Active
Rattus norvegicus [15]
  Activity: Active

## OC[C@H]1O[C@@H](OCCc2ccc(O)cc2)[C@H](O)[C@@H](O)[C@@H]1O [SALIDROSIDE]
Rattus norvegicus [1]
  Activity: Active
Rattus norvegicus [2]
  Activity: Active
Rattus norvegicus [3]
  Activity: Active
Rattus norvegicus [4]
  Activity: Active
Rattus norvegicus [5]
  Activity: Active
Rattus norvegicus [6]
  Activity: Active
Rattus norvegicus [7]
  Activity: Active
Rattus norvegicus [8]
  Activity: Active
Rattus norvegicus [9]
  Activity: Active
Rattus norvegicus [10]
  Activity: Active
Rattus norvegicus [11]
  Activity: Active
Rattus norvegicus [12]
  Activity: Active
Rattus norvegicus [13]
  Activity: Active
Rattus norvegicus [14]
  Activity: Active
Rattus norvegicus [15]
  Activity: Active
Epithelial cell [16]
  Activity: Active
Epithelial cell [17]
  Activity: Active
Epithelial cell [18]
  Activity: 1.03%
Epithelial cell [19]
  Activity: 11%
Epithelial cell [20]
  Activity: 3.27%
Epithelial cell [21]
  viability at 40 µM: 84.7%
Epithelial cell [22]
  Activity: 0.436%
Epithelial cell [23]
  Activity: 21.3%
Epithelial cell [24]
  Activity: 3.74%
Epithelial cell [25]
  Activity: 74.3%
Epithelial cell [26]
  Activity: Active
Epithelial cell [27]
  Activity: Active
Epithelial cell [28]
  Activity: Active
Epithelial cell [29]
  Activity: Active
Epithelial cell [30]
  Activity: Active
Epithelial cell [31]
  Activity: Active
Epithelial cell [32]
  Activity: Active
Epithelial cell [33]
  Activity: Active
Epithelial cell [34]
  Activity: Active
Epithelial cell [35]
  Activity: 0.817%
Epithelial cell [36]
  Activity: 11.5%
Epithelial cell [37]
  Activity: 3.7%
Epithelial cell [38]
  Activity: 84%
